Results from patent US10239832B2, “N-(1-hydroxy-3-(pyrrolidinyl)propan-2-yl)pyrrolidine-3-carboxamide derivatives as glucosylceramide synthase inhibitors” (BIOMARIN PHARMACEUTICAL INC., priority 2013, dated 2019).

Target: T1, GCS (Canis lupus familiaris, UniProt A0A8I3MXG6)
T1 construct: endogenous in cells; host or cells: MDCK (Madin-Darby canine kidney) cells, whole-cell lysate
T1 sequence (A0A8I3MXG6 1-394): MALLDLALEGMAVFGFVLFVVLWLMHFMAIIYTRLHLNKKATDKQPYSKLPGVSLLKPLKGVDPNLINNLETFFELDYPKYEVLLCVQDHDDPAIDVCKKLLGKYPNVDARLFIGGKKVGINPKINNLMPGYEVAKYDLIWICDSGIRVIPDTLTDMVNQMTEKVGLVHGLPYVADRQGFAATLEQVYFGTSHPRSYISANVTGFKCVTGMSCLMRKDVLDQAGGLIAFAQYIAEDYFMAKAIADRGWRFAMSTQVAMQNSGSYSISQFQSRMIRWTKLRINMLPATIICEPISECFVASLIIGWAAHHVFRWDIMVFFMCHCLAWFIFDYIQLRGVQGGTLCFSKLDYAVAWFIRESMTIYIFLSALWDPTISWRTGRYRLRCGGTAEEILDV
Assay: GCS enzymatic assay (MDCK cell lysate, NBD-ceramide to glucosylceramide, LC/MS)
Type: biochemical, canine
Details: Table 2, the table does not say which of the assays; for Data Range (% inhibition): class symbols D, E, F, NA (not active); for IC50: class symbols A, B, C, read-out: Data Range (IC50 values)
Protocol: This assay was modified based on the study by Larsen et al. (J. Lipid Res. 2011, 53, 282). Madin-Darby canine kidney (MDCK) cell lysate was prepared using M-PER Mammalian Protein Extraction Reagent (Thermal Scientific) in the presence of a protease inhibitor cocktail (Roche). Protein concentration was determined using BCA assay kit (Pierce). […] 0.1% DMSO was used as mock treatment or control. The reaction was terminated by adding 100 μL acetonitrile solution and subjected to LC/MS analysis.
The quantitative analysis of NBD-Ceramide and glucosylceramide was performed on a Shimadzu ultra-fast liquid chromatography (Shimadzu, Japan) coupled with API 4000 triple quadrupole mass spectrometer (Applied Biosystems, Concord, Ontario, Canada). Sample separation was conducted on a Waters Xbridge™ BEH130 C18, 100 mm×4.6 mm i.d, 3.5 μm (Milford, Mass., USA). The mobile phase consisted of water and acetonitrile supplemented with 0.1% formic acid (v/v). The flow rate was 1.0 mL/min. The initial mobile phase was 20% acetonitrile and was ramped in a linear fashion to 50% acetonitrile in 0.4 min. From 0.4 to 1.5 min, the gradient was ramped to 98% acetonitrile, and then was held at […] until 8.0 min. Acetonitrile was reset to 20% in 1.5 min, and maintained until 10.0 min. The total run time was 10.0 min. The MS/MS detection was performed in ESI positive mode. The mass transition of NBD-Ceramide was m/z 576.36→558.40 under the collision energy of 15 V, and the mass transition of glucosylceramide was m/z 738.35→558.40 under 21V collision energy. The cell lysate was diluted with equal volume of acetonitrile. Aliquots of 50 μL diluted samples were added to 1.5 mL tubes, and 100 μL of acetonitrile containing internal standard (100 ng/mL tolbutamide) were added for protein precipitation. The mixture were vortexed and then centrifuged at 13000 rpm for 10 min. 70 μL of supernatant were mixed with 140 μL of H2O and the final solution were injected for LC/MS/MS analysis and IC50's and/or percent inhibitions calculated.

Compound	Data Range (% inhibition)	IC50
O=C(N[C@H](CN1CCCC1)[C@H](O)c1ccc2c(c1)OCCO2)[C@@H]1CCN(CC2(O)CCOCC2)C1 [Compound 5, (R)-N-((1R,2R)-1-(2,3-dihydrobenzo[b][1,4]dioxin-6-yl)-1-hydroxy-3-(pyrrolidin-1-yl)propan-2-yl)-1-((4-hydroxytetrahydro-2H-pyran-4-yl)methyl)pyrrolidine-3-carboxamide]	F (1-49% (or less than 50%))	
O=C(N[C@H](CN1CCCC1)[C@H](O)c1ccc2c(c1)OCCO2)C1CCN(CC2(O)CCOCC2)C1 (stereo partly drawn) [Compound 5D, N-((1R,2R)-1-(2,3-dihydrobenzo[b][1,4]dioxin-6-yl)-1-hydroxy-3-(pyrrolidin-1-yl)propan-2-yl)-1-((4-hydroxytetrahydro-2H-pyran-4-yl)methyl)pyrrolidine-3-carboxamide]	F (1-49% (or less than 50%))	
O=C(N[C@H](CN1CCCC1)[C@H](O)c1ccc2c(c1)OCCO2)[C@H]1CCN(CC2(O)CCOCC2)C1 [Compound 5E, (S)-N-((1R,2R)-1-(2,3-dihydrobenzo[b][1,4]dioxin-6-yl)-1-hydroxy-3-(pyrrolidin-1-yl)propan-2-yl)-1-((4-hydroxytetrahydro-2H-pyran-4-yl)methyl)pyrrolidine-3-carboxamide]	F (1-49% (or less than 50%))	
O=C(N[C@H](CN1CCCC1)[C@H](O)c1ccc(OC2CC2)c(Cl)c1)C1CCN(c2ccc(C(F)(F)F)cc2)C1 (stereo partly drawn) [Compound 6, N-((1R,2R)-1-(3-chloro-4-cyclopropoxyphenyl)-1-hydroxy-3-(pyrrolidin-1-yl)propan-2-yl)-1-(4-(trifluoromethyl)phenyl)pyrrolidine-3-carboxamide]	F (1-49% (or less than 50%))	
O=C(N[C@H](CN1CCCC1)[C@H](O)c1ccc2c(c1)OCCO2)[C@@H]1CCN(C2CCOCC2)C1 [Compound 9, (R)-N-((1R,2R)-1-(2,3-dihydrobenzo[b][1,4]dioxin-6-yl)-1-hydroxy-3-(pyrrolidin-1-yl)propan-2-yl)-1-(tetrahydro-2H-pyran-4-yl)pyrrolidine-3-carboxamide]	NA (not active—a negative value was generated for % inhibition)	
O=C(N[C@H](CN1CCCC1)[C@H](O)c1ccc2c(c1)OCCO2)C1CCN(C2CCOCC2)C1 (stereo partly drawn) [Compound 9D, N-((1R,2R)-1-(2,3-dihydrobenzo[b][1,4]dioxin-6-yl)-1-hydroxy-3-(pyrrolidin-1-yl)propan-2-yl)-1-(tetrahydro-2H-pyran-4-yl)pyrrolidine-3-carboxamide]	F (1-49% (or less than 50%))	
O=C(N[C@H](CN1CCCC1)[C@H](O)c1ccc2c(c1)OCCO2)[C@H]1CCN(C2CCOCC2)C1 [Compound 9E, (S)-N-((1R,2R)-1-(2,3-dihydrobenzo[b][1,4]dioxin-6-yl)-1-hydroxy-3-(pyrrolidin-1-yl)propan-2-yl)-1-(tetrahydro-2H-pyran-4-yl)pyrrolidine-3-carboxamide]	NA (not active—a negative value was generated for % inhibition)	
O=C(N[C@H](CN1CCCC1)[C@H](O)c1ccc(OC2CC2)c(Cl)c1)C1CCN(c2ccc(OC(F)(F)F)cc2)C1 (stereo partly drawn) [Compound 10, N-((1R,2R)-1-(3-chloro-4-cyclopropoxyphenyl)-1-hydroxy-3-(pyrrolidin-1-yl)propan-2-yl)-1-(4-(trifluoromethoxy)phenyl)pyrrolidine-3-carboxamide]	D (75-100%)	
O=C(N[C@H](CN1CCCC1)[C@H](O)c1ccc2c(c1)OCCO2)C1CCN(C2CCCC2)C1 (stereo partly drawn) [Compound 11, 1-cyclopentyl-N-((1R,2R)-1-(2,3-dihydrobenzo[b][1,4]dioxin-6-yl)-1-hydroxy-3-(pyrrolidin-1-yl)propan-2-yl)pyrrolidine-3-carboxamide]	NA (not active—a negative value was generated for % inhibition)	
O=C(N[C@H](CN1CCCC1)[C@H](O)c1ccc(OC2CC2)nc1)[C@@H]1CCN(c2ccc(Cl)cc2)C1 [Compound 13, (R)-1-(4-chlorophenyl)-N-((1R,2R)-1-(6-cyclopropoxypyridin-3-yl)-1-hydroxy-3-(pyrrolidin-1-yl)propan-2-yl)pyrrolidine-3-carboxamide]		30 to 100 nM
O=C(N[C@H](CN1CCCC1)[C@H](O)c1ccc(OC2CC2)nc1)[C@H]1CCN(c2ccc(Cl)cc2)C1 [Compound 13C, (S)-1-(4-chlorophenyl)-N-((1R,2R)-1-(6-cyclopropoxypyridin-3-yl)-1-hydroxy-3-(pyrrolidin-1-yl)propan-2-yl)pyrrolidine-3-carboxamide]	F (1-49% (or less than 50%))	
O=C(N[C@H](CN1CCCC1)[C@H](O)c1ccc2c(c1)OCCO2)C1CCN(c2ccc3cc(F)ccc3c2)C1 (stereo partly drawn) [Compound 14C, N-((1R,2R)-1-(2,3-dihydrobenzo[b][1,4]dioxin-6-yl)-1-hydroxy-3-(pyrrolidin-1-yl)propan-2-yl)-1-(6-fluoronaphthalen-2-yl)pyrrolidine-3-carboxamide]		1 to 30 nM
O=C(N[C@H](CN1CCCC1)[C@H](O)c1ccc2c(c1)OCCO2)[C@@H]1CCN(Cc2ccc(Cl)cc2)C1 [Compound 15, (R)-1-(4-chlorobenzyl)-N-((1R,2R)-1-(2,3-dihydrobenzo[b][1,4]dioxin-6-yl)-1-hydroxy-3-(pyrrolidin-1-yl)propan-2-yl)pyrrolidine-3-carboxamide]	F (1-49% (or less than 50%))	
O=C(N[C@H](CN1CCCC1)[C@H](O)c1ccc2c(c1)OCCO2)C1CCN(Cc2ccc(Cl)cc2)C1 (stereo partly shown) [Compound 15C]	F (1-49% (or less than 50%))	
O=C(N[C@H](CN1CCCC1)[C@H](O)c1ccc2c(c1)OCCO2)[C@H]1CCN(Cc2ccc(Cl)cc2)C1 [Compound 15D, (S)-1-(4-chlorobenzyl)-N-((1R,2R)-1-(2,3-dihydrobenzo[b][1,4]dioxin-6-yl)-1-hydroxy-3-(pyrrolidin-1-yl)propan-2-yl)pyrrolidine-3-carboxamide]	F (1-49% (or less than 50%))	
O=C(N[C@H](CN1CCCC1)[C@H](O)c1ccc2c(c1)OCCO2)[C@@H]1CCN(c2nccs2)C1 [Compound 17, (R)-N-((1R,2R)-1-(2,3-dihydrobenzo[b][1,4]dioxin-6-yl)-1-hydroxy-3-(pyrrolidin-1-yl)propan-2-yl)-1-(thiazol-2-yl)pyrrolidine-3-carboxamide]	E (50-74% (or less than 75%))	
O=C(N[C@H](CN1CCCC1)[C@H](O)c1ccc2c(c1)OCCO2)[C@H]1CCN(c2nccs2)C1 [Compound 17D, (S)-N-((1R,2R)-1-(2,3-dihydrobenzo[b][1,4]dioxin-6-yl)-1-hydroxy-3-(pyrrolidin-1-yl)propan-2-yl)-1-(thiazol-2-yl)pyrrolidine-3-carboxamide]	NA (not active—a negative value was generated for % inhibition)	
O=C(N[C@H](CN1CCCC1)[C@H](O)c1ccc2c(c1)OCCO2)C1CCN(c2ccc(Cl)c(OC3CC3)c2)C1 (stereo partly shown) [Compound 19]	E (50-74% (or less than 75%))	
O=C(N[C@H](CN1CCCC1)[C@H](O)c1ccc2c(c1)OCCO2)[C@@H]1CCN(c2ccc(OC3CC3)c(Cl)c2)C1 [Compound 20, (R)-1-(3-chloro-4-cyclopropoxyphenyl)-N-((1R,2R)-1-(2,3-dihydrobenzo[b][1,4]dioxin-6-yl)-1-hydroxy-3-(pyrrolidin-1-yl)propan-2-yl)pyrrolidine-3-carboxamide]	F (1-49% (or less than 50%))	
